This assay deals with T1, Horseradish peroxidase (HRP), soluble HRP.
T1 construct: gene PRXC1A; free soluble form
As to the kind of experiment: Lineweaver-Burk; absorbance at […] nm. It counts as biochemical, Armoracia rusticana. The settings on record: soluble enzyme; co-substrate H2O2 (standard assay 8 mM); standard assay 20 mM sodium acetate pH 5.5.

Usually Km stands for the concentration of substrate that gives half-maximal velocity. For the compound `COc1ccccc1O` [guaiacol], the Michaelis constant (Km) was 6.9 mM.
